{"source": "patent US20120196766A1", "about": "“Therapeutic Use of Farnesyltransferase Inhibitors and Methods of Monitoring the Efficacy Thereof” (priority 2004, published 2012)", "system": "THP-1 cells", "test": "cDNA microarray analysis of LPS-induced gene transcription in THP-1 cells", "format": "cell-based, Human", "conditions": "LPS 100 ng/ml, tipifarnib 5 μM", "description": "THP-1 cells were cultured in RPMI1640 medium, supplemented with 10% FBS/100 units/ml Penicillin/10 μg/ml Streptomycin at 37° C., under 5% CO2. […] For the untreated control group (no LPS, no compound) and LPS alone group, equivalent volumes of DMSO were added to the medium. Cells were cultured at 37° C. and pellets were collected at 0 hr, 1 hr, 3 hr, 6 hr, 12 hr & 24 hr. Cell pellets were stored at −80° C. if RNA isolation was not conducted immediately. For experiments to study cytokine secretion in culture supernatants, THP-1 cells were washed twice with PBS, resuspended at 3.4×10^5/ml and cultured in 96-well plates at 250 μL, per well at 37° C. […] Supernatants were collected at different time points as indicated in the figures and were kept at ≦−20° C. until analysis of cytokine production.\nTotal RNA was isolated using RNeasy mini kit from QIAGEN (Valencia, Calif.) according to the manufacturer's instructions. RNA samples were stored at −80° C.\nFive μg of total RNA was linearly amplified to double-stranded cDNA using T7-based amplification. The cDNA was purified using the QIAquick 96 PCR purification kit (QIAGEN Valencia, Calif.), and used to generate amplified (a) RNA using AmpliScribe™ T7 High Yield Transcription Kit (Epicentre, Madison, Wis.). Ten μg of purified aRNA was reverse transcribed to cDNA using the SuperScript RTII kit (Invitrogen) and labeled by direct incorporation of Cy3-dCTP. The generated cDNA probe was used for hybridizing to cDNA microarrays.\nEach clone was spotted in duplicate on the array.", "data": [{"smiles": "Cn1cncc1C(N)(c1ccc(Cl)cc1)c1ccc2c(c1)c(-c1cccc(Cl)c1)cc(=O)n2C", "note": "(single isomer, unassigned; (+)) [tipifarnib, (+)-6-[amino(4-chlorophenyl)(1-methyl-1H-imidazol-5-yl)methyl]-4-(3-chlorophenyl)-1-methyl-2(1H)-quinolinone]", "values": [{"measurement": "Fold-change (tipifarnib/LPS vs LPS) ABCB8", "setting": "1 hr", "result": 1.07}, {"measurement": "Fold-change (tipifarnib/LPS vs LPS) B2M", "setting": "1 hr", "result": 1.15}, {"measurement": "Fold-change (tipifarnib/LPS vs LPS) C3AR1", "setting": "1 hr", "result": 1.00}, {"measurement": "Fold-change (tipifarnib/LPS vs LPS) CCL2", "setting": "1 hr", "result": "−1.07"}, {"measurement": "Fold-change (tipifarnib/LPS vs LPS) CCL3", "setting": "1 hr", "result": "−1.07"}, {"measurement": "Fold-change (tipifarnib/LPS vs LPS) CCL4", "setting": "1 hr", "result": 1.07}, {"measurement": "Fold-change (tipifarnib/LPS vs LPS) CCL8", "setting": "1 hr", "result": "−1.07"}, {"measurement": "Fold-change (tipifarnib/LPS vs LPS) CCND1", "setting": "1 hr", "result": 1.00}, {"measurement": "Fold-change (tipifarnib/LPS vs LPS) CXCL11", "setting": "1 hr", "result": 1.00}, {"measurement": "Fold-change (tipifarnib/LPS vs LPS) GNPNAT1", "setting": "1 hr", "result": 1.00}, {"measurement": "Fold-change (tipifarnib/LPS vs LPS) IER3", "setting": "1 hr", "result": 1.32}, {"measurement": "Fold-change (tipifarnib/LPS vs LPS) IFI16", "setting": "1 hr", "result": 1.07}, {"measurement": "Fold-change (tipifarnib/LPS vs LPS) IFIT1", "setting": "1 hr", "result": 1.00}, {"measurement": "Fold-change (tipifarnib/LPS vs LPS) IFNB1", "setting": "1 hr", "result": "−1.23"}, {"measurement": "Fold-change (tipifarnib/LPS vs LPS) IGFBP3", "setting": "1 hr", "result": 1.00}, {"measurement": "Fold-change (tipifarnib/LPS vs LPS) IL1B", "setting": "1 hr", "result": 1.07}, {"measurement": "Fold-change (tipifarnib/LPS vs LPS) IL1RN", "setting": "1 hr", "result": "−1.15"}, {"measurement": "Fold-change (tipifarnib/LPS vs LPS) IL8", "setting": "1 hr", "result": "−1.07"}, {"measurement": "Fold-change (tipifarnib/LPS vs LPS) KCNK17", "setting": "1 hr", "result": "−1.07"}, {"measurement": "Fold-change (tipifarnib/LPS vs LPS) LAP3", "setting": "1 hr", "result": "−1.07"}, {"measurement": "Fold-change (tipifarnib/LPS vs LPS) LGR7", "setting": "1 hr", "result": 1.23}, {"measurement": "Fold-change (tipifarnib/LPS vs LPS) MMP9", "setting": "1 hr", "result": "−1.07"}, {"measurement": "Fold-change (tipifarnib/LPS vs LPS) MX1", "setting": "1 hr", "result": 1.00}, {"measurement": "Fold-change (tipifarnib/LPS vs LPS) MYD88", "setting": "1 hr", "result": 1.07}, {"measurement": "Fold-change (tipifarnib/LPS vs LPS) NEXN", "setting": "1 hr", "result": 1.00}, {"measurement": "Fold-change (tipifarnib/LPS vs LPS) NFKB2", "setting": "1 hr", "result": "−1.07"}, {"measurement": "Fold-change (tipifarnib/LPS vs LPS) PLAUR", "setting": "1 hr", "result": 1.00}, {"measurement": "Fold-change (tipifarnib/LPS vs LPS) PTX3", "setting": "1 hr", "result": 1.15}, {"measurement": "Fold-change (tipifarnib/LPS vs LPS) S100A9", "setting": "1 hr", "result": 1.00}, {"measurement": "Fold-change (tipifarnib/LPS vs LPS) STAT1", "setting": "1 hr", "result": 1.23}, {"measurement": "Fold-change (tipifarnib/LPS vs LPS) TAP1", "setting": "1 hr", "result": "−1.23"}, {"measurement": "Fold-change (tipifarnib/LPS vs LPS) TAP2", "setting": "1 hr", "result": 1.07}, {"measurement": "Fold-change (tipifarnib/LPS vs LPS) TRIM22", "setting": "1 hr", "result": 1.00}, {"measurement": "Fold-change (tipifarnib/LPS vs LPS) UBE2L6", "setting": "1 hr", "result": 1.00}, {"measurement": "Fold-change (tipifarnib/LPS vs LPS) ABCB8", "setting": "3 hr", "result": 1.00}, {"measurement": "Fold-change (tipifarnib/LPS vs LPS) B2M", "setting": "3 hr", "result": 1.00}, {"measurement": "Fold-change (tipifarnib/LPS vs LPS) C3AR1", "setting": "3 hr", "result": 1.07}, {"measurement": "Fold-change (tipifarnib/LPS vs LPS) CCL2", "setting": "3 hr", "result": "−1.32"}, {"measurement": "Fold-change (tipifarnib/LPS vs LPS) CCL3", "setting": "3 hr", "result": 1.00}, {"measurement": "Fold-change (tipifarnib/LPS vs LPS) CCL8", "setting": "3 hr", "result": 1.00}, {"measurement": "Fold-change (tipifarnib/LPS vs LPS) CCND1", "setting": "3 hr", "result": "−1.07"}, {"measurement": "Fold-change (tipifarnib/LPS vs LPS) CXCL11", "setting": "3 hr", "result": "−1.07"}, {"measurement": "Fold-change (tipifarnib/LPS vs LPS) GNPNAT1", "setting": "3 hr", "result": 1.00}, {"measurement": "Fold-change (tipifarnib/LPS vs LPS) IFI16", "setting": "3 hr", "result": 1.00}, {"measurement": "Fold-change (tipifarnib/LPS vs LPS) IFIT1", "setting": "3 hr", "result": 1.00}, {"measurement": "Fold-change (tipifarnib/LPS vs LPS) IFNB1", "setting": "3 hr", "result": "−1.15"}, {"measurement": "Fold-change (tipifarnib/LPS vs LPS) IGFBP3", "setting": "3 hr", "result": "−1.07"}, {"measurement": "Fold-change (tipifarnib/LPS vs LPS) IL1B", "setting": "3 hr", "result": 1.32}, {"measurement": "Fold-change (tipifarnib/LPS vs LPS) IL1RN", "setting": "3 hr", "result": "−1.15"}, {"measurement": "Fold-change (tipifarnib/LPS vs LPS) IL8", "setting": "3 hr", "result": "−1.23"}, {"measurement": "Fold-change (tipifarnib/LPS vs LPS) KCNK17", "setting": "3 hr", "result": "−1.15"}, {"measurement": "Fold-change (tipifarnib/LPS vs LPS) LAP3", "setting": "3 hr", "result": "−1.07"}, {"measurement": "Fold-change (tipifarnib/LPS vs LPS) LGR7", "setting": "3 hr", "result": "−1.15"}, {"measurement": "Fold-change (tipifarnib/LPS vs LPS) LY6E", "setting": "3 hr", "result": "−1.15"}, {"measurement": "Fold-change (tipifarnib/LPS vs LPS) MMP9", "setting": "3 hr", "result": "−1.07"}, {"measurement": "Fold-change (tipifarnib/LPS vs LPS) MX1", "setting": "3 hr", "result": "−1.07"}, {"measurement": "Fold-change (tipifarnib/LPS vs LPS) MYD88", "setting": "3 hr", "result": "−1.15"}, {"measurement": "Fold-change (tipifarnib/LPS vs LPS) NEXN", "setting": "3 hr", "result": 1.00}, {"measurement": "Fold-change (tipifarnib/LPS vs LPS) NFKB2", "setting": "3 hr", "result": 1.23}, {"measurement": "Fold-change (tipifarnib/LPS vs LPS) PLAUR", "setting": "3 hr", "result": "−1.23"}, {"measurement": "Fold-change (tipifarnib/LPS vs LPS) PTX3", "setting": "3 hr", "result": "−1.15"}, {"measurement": "Fold-change (tipifarnib/LPS vs LPS) S100A9", "setting": "3 hr", "result": "−1.15"}]}]}
